EC50 data for 27 compounds are collected here from BindingDB's records for doi:10.1021/acsmedchemlett.6b00390 (Yale University, 2016).

In general, EC50 refers to the concentration at which the effect is half-maximal.

Assay [1] is described as follows: Inhibition of HIV1 reverse transcriptase Y181C mutant infected in human MT2 cells assessed as protection against viral infection by MTT assay. A general note: Tetrazolium dyes change colour on reduction, which living cells bring about.
Assay [2] in a line: Inhibition of HIV1 reverse transcriptase K103N/Y181C double mutant infected in human MT2 cells assessed as protection against viral infection by MTT assay.

On to `Cc1c(Oc2ccccc2OCCn2ccc(=O)[nH]c2=O)cc(Cl)c2ccc(C#N)cc12`, for which, in assay [1], the concentration giving a half-maximal response (EC50) was found to be 58 nM.
Turning to `N#Cc1ccc2c(Cl)cc(Oc3ccccc3OCCn3ccc(=O)[nH]c3=O)cc2c1`, the EC50 in assay [2] and in assay [1] was 890 nM throughout.
Consider `N#Cc1ccc2ccc(Oc3ccccc3OCCn3ccc(=O)[nH]c3=O)cc2c1`, for which the EC50 in assay [2] is 4000 nM; in assay [1], 2600 nM.
Taken in the same sequence, the figures for `CCCc1cc(Oc2ccccc2OCCn2ccc(=O)[nH]c2=O)c(C)c2cc(C#N)ccc12` were 990 nM and 630 nM.
Turning to `Cc1c(Oc2ccc(F)cc2OCCn2ccc(=O)[nH]c2=O)cc(F)c2ccc(C#N)cc12`, the EC50 is 980 nM in assay [2] and 31 nM in assay [1].
Consider `Cc1c(Oc2ccc(F)cc2OCCn2ccc(=O)[nH]c2=O)cc(Cl)c2ccc(C#N)cc12`, for which the concentration giving a half-maximal response (EC50) in assay [2] was 500 nM; in assay [1] it was 27 nM.
Consider `N#Cc1ccc2cc(Oc3ccccc3OCCn3ccc(=O)[nH]c3=O)ccc2c1`, for which the 50% effective concentration (EC50) in assay [2] is 5600 nM; in assay [1] it was > 100 nM.
The matching figures for `N#Cc1cc2c(Oc3ccc(F)cc3OCCn3ccc(=O)[nH]c3=O)cc(F)cn2c1`: 10 nM and 250 nM.
Taken in the same sequence, the figures for `Cc1cc2ccc(C#N)cc2c(C)c1Oc1ccccc1OCCn1ccc(=O)[nH]c1=O` were 1700 nM and > 100 nM.
For the compound `Cc1c(Oc2ccccc2OCCn2ccc(=O)[nH]c2=O)c(C)c2cc(C#N)ccc2c1C`, in assay [2], the EC50 turned out to be 790 nM.
Take `N#Cc1ccc2c(Cl)cc(Oc3ccc(F)cc3OCCn3ccc(=O)[nH]c3=O)cc2c1`: the figures for the EC50 in assay [2] and in assay [1] were 4100 nM and 1100 nM, respectively.
On to `Cc1cc(Oc2ccc(F)cc2OCCn2ccc(=O)[nH]c2=O)c(F)c2cc(C#N)ccc12`, for which the EC50 in assay [2] was determined as 3800 nM; in assay [1] it was 1200 nM.
Taken in the same sequence, the figures for `Cc1cc(Oc2ccc(F)cc2OCCn2ccc(=O)[nH]c2=O)c(C)c2cc(C#N)ccc12` were 410 nM and 28 nM.
The matching figures for `Cc1c(Oc2ccc(Cl)cc2OCCn2ccc(=O)[nH]c2=O)cc(F)c2ccc(C#N)cc12`: > 100 nM and 330 nM.
With `N#Cc1ccc2c(F)cc(Oc3ccc(F)cc3OCCn3ccc(=O)[nH]c3=O)c(Cl)c2c1`, the EC50 was 1600 nM in assay [2] and 72 nM in assay [1].
With `CCOc1cc(Oc2ccccc2OCCn2ccc(=O)[nH]c2=O)c(C)c2cc(C#N)ccc12`, the EC50 was determined as 800 nM in assay [2] and 200 nM in assay [1].
For the compound `Cc1c(Oc2ccccc2OCCn2ccc(=O)[nH]c2=O)cc(C(C)C)c2ccc(C#N)cc12`, the EC50 in assay [2] came to 100 nM; in assay [1], 400 nM.
Consider `Cc1c(Oc2ccccc2OCCn2ccc(=O)[nH]c2=O)cc(CC2CC2)c2ccc(C#N)cc12`, for which the EC50 in assay [2] was 1200 nM; in assay [1], 900 nM.
The matching figures for `COc1cc(Oc2ccccc2OCCn2ccc(=O)[nH]c2=O)c(C)c2cc(C#N)ccc12`: 1600 nM and 670 nM.
As to `COCc1cc(Oc2ccccc2OCCn2ccc(=O)[nH]c2=O)c(C)c2cc(C#N)ccc12`, the EC50 in assay [2] was 790 nM; in assay [1], 690 nM.
Turning to `Cc1cc(Oc2ccccc2OCCn2ccc(=O)[nH]c2=O)c(Cl)c2cc(C#N)ccc12`, the half-maximal effective concentration (EC50) in assay [2] stood at 120 nM; in assay [1], 42 nM.
The matching figures for `Cc1cc(Oc2ccccc2OCCn2ccc(=O)[nH]c2=O)c(C)c2cc(C#N)ccc12`: 150 nM and 62 nM.
Consider `Cc1cc(Oc2ccccc2OCCn2ccc(=O)[nH]c2=O)cc2cc(C#N)ccc12`, for which the EC50 in assay [2] stood at 2900 nM; in assay [1], 800 nM.
The matching figures for `CCc1cc(Oc2ccccc2OCCn2ccc(=O)[nH]c2=O)c(C)c2cc(C#N)ccc12`: 300 nM and 150 nM.
Taken in the same sequence, the figures for `N#Cc1ccc2c(F)cc(Oc3ccccc3OCCn3ccc(=O)[nH]c3=O)c(Cl)c2c1` were 310 nM and 90 nM.
Take `Cc1c(Oc2ccccc2OCCn2ccc(=O)[nH]c2=O)cc(F)c2ccc(C#N)cc12`: the EC50 is 890 nM in assay [2] and 60 nM in assay [1].
Taken in the same sequence, the figures for `N#Cc1ccc2ccc(Oc3ccc(F)cc3OCCn3ccc(=O)[nH]c3=O)cc2c1` were 9400 nM and 1200 nM.
